In patent publication US7067273B2, “Peptide substrates of a proteolytic ADAM33 polypeptide and assays using the same” (Schering Corporation, priority 2002, dated 2006):

What was measured:
[1] = biological target: T1, proteolytic ADAM33 polypeptide (Homo sapiens, UniProt Q9BZ11); experiment: FRET assay for inhibition of the proteolytic activity of a proteolytic ADAM33 polypeptide; assay type: biochemical
T1 construct: The presence of imidazole facilitated the separation of the prodomain from the catalytic domain; made in house; host or cells: Drosophila melanogaster S2 cells (pMT/Bip/V5-His-C, secreted)
T1 sequence (Q9BZ11 204-409): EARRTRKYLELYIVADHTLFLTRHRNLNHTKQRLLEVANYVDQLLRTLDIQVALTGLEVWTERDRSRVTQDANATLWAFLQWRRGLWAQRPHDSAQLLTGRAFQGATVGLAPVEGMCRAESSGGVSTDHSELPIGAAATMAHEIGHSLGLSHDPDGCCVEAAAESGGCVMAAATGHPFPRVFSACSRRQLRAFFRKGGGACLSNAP
Method: A FRET assay may also be used to determine the cleavage of a compound by a proteolytic ADAM33 polypeptide. At room temperature, in a total reaction volume of 100 μL per well in a 96 well plate, add 50 μL of 2× Assay Buffer (40 mM HEPES, pH 7.5, 1.0 M NaCl; 1× Assay Buffer being 20 mM HEPES, pH 7.5, 0.5 M NaCl), followed by 25 μL of 100 μM substrate, e.g., SEQ ID NO: 14 (K(Dabcyl)YEVAHQKLAE(Edans)K-OH), and lastly 25 μL of 40 nM a proteolytic ADAM33 polypeptide in Enzyme Dilution Buffer 40 mM HEPES, pH 7.5. The reaction starts after the enzyme is added and is assayed at room temperature for 15–20 minutes by reading the relative fluorescence unit.
For High throughput screening, the FRET assay is performed similarly to that stated above, but with Assay Buffer that is also composed of 0.2 mg/ml BSA (1× Assay Buffer being 20 mM HEPES, pH 7.5, 0.5 M NaCl, 0.2 mg/ml BSA). In addition, the substrate used has a fluorescent donor and an acceptor at either end of the peptide, e.g., SEQ ID NO: 18 ((Cy5Q)WEVAH*QKLAC(Cy3B)K). Lastly, the reaction is incubated at room temperature for 3 hours and then stopped by adding 10 μL EDTA (11 mM). To measure the proteolytic activity of the proteolytic ADAM33 polypeptide on the substrate, the endpoint (relative fluorescence unit) is read using the appropriate excitation and emission wavelengths (e.g., for Cy5Q and Cy3B, 540 nm and 580 nm, respectively). […]

[2] = biological target: T1, proteolytic ADAM33 polypeptide; experiment: Proteolytic activity assay: cleavage of peptide substrates by a proteolytic ADAM33 polypeptide (HPLC); assay type: biochemical; conditions: fold versus SEQ ID NO: 8
From the text: The proteolytic activity assay consists of a substrate, preferably at a micromolar to submicromolar concentration, and a proteolytic ADAM33 polypeptide, preferably at a submicromolar concentration, in a benign buffered solution at pH 7–9, more preferably around pH 7.5–8.0. This assay may be set-up to monitor proteolytic activity of a proteolytic ADAM33 polypeptide continuously over a time span of minutes to hours in a 96-well or 384-well format. Alternatively, this assay may be set up to allow an elapse of time span of minutes to hours before the proteolytic activity is quenched and analyzed following acidification to under pH 4 or addition of an excess amount of zinc chelators (e.g., EDTA).
For example, an ADAM33 substrate derived from amyloid percursor protein to assay the proteolytic activity of a proteolytic ADAM33 polypeptide. The cleavage site in the above-mentioned substrate is indicated by a hyphen (i.e., the cleavage site is the scissile bond being between the second histidine and the adjacent glutamine). One particular set of assay conditions contains 25 nM of the proteolytic ADAM33 polypeptide and 25 μM substrate. […] The rate of reaction is measured over a defined time period (e.g., for 1 hour at room temperature) and then stopped. Product formation can be quantified at 214 nm by HPLC using a reverse phase column to separate the substrate from the products. […]

Row | inhibition of the proteolytic activity of a proteolytic ADAM33 polypeptide (in words) [1] | cleavage rate relative to the 10-mer truncated form of APP28 (SEQ ID NO: 8) [2] | Molecule
1 | identified as an inhibitor |  | CNC(=O)[C@@H](NC(=O)[C@H](CC(C)C)[C@H](O)C(=O)NO)C(C)(C)C [marimastat]
2 |  | seventeen times greater | Ac-Tyr-Glu-Val-Ala-His-Gln-Lys-Leu-Val-Phe-NH2 (Ac-YEVAHQKLVF-NH2) [SEQ ID NO: 13, peptide substrate, code P5P5′, Ac-YEVAH*QKLVF-NH2]
